Results: patent US6713043B2 (priority 1996, dated 2004)
Converted amounts (≈) assume the structure as drawn.

Test system: M. tuberculosis (21 clinical and CDC strains, pan-sensitive and multidrug resistant)
Experiment: microbe, parasite or virus in culture
Assay type: cell-based, Mycobacterium tuberculosis

## Cc1ccc(C)c(OCCCC(C)(C)C(=O)O)c1 [GFZ, Gemfibrozil]
  difference in sensitivity among the 21 strains: No greater than a two fold difference
Mycobacterium tuberculosis, 504 h, read-out: MIC (GFZ concentration at which no growth was seen)
  MIC: 100 to 200 µg/mL (≈ 399 to 799 µM)
